We go through two molecules from paper PMC5799307, “Creation of a long-acting nanoformulated dolutegravir” (Nature Communications, 2018).

The structures appear in SMILES notation. Like-named read-outs stand apart in the source and are kept apart here. A value given as a limit tells only on which side of the number the result lay.

Format in all cases: cell-based
Data set [1] has as its system HIV-1ADA. As to the kind of experiment: IC50 by HIV-1 RT activity in HIV-1ADA-infected MDM. Particulars: Human immunodeficiency virus 1, 240 h, HIV-1ADA MOI 0.1, RT activity day 10. How it is done:
(§1) Antiretroviral efficacy was determined by measurements of HIV reverse transcriptase (RT) activity. For IC50 determination, MDM were exposed to various concentrations (0.01–1000 nM) of DTG or MDTG for 1 h followed by challenge with HIV-1ADA[60] at a multiplicity of infection (MOI) of 0.1 infectious particles per cell for 4 h. Following viral challenge, cells were washed and incubated with the same concentration of drug used before infection for an additional 10 days in culture. Culture fluids were collected on day 10 for the measurement of RT activity as previously described[16],[62],[63]. To assess antiretroviral efficacy, MDM were treated with 100 μM DTG, MDTG, NDTG, or NMDTG as described above for 8 h. After treatment, cells were washed with PBS and cultured with fresh media, with half-media exchanges every other day. At 0, 4, 12 h, and 1, 5, 10, 15, 20, 25, or 30 days after treatment, cells were challenged with HIV-1ADA at an MOI of 0.1 infectious particles per cell for 16 h. After viral infection, the cells were cultured an additional 10 days with half-media exchanges every other day. Culture fluids were collected for measurement of RT activity as previously described[16],[62],[63]. Cells were fixed with 4% PFA and expression of HIV-1p24 antigen was determined by immunocytochemistry.

Data set [2] deals with human monocyte-derived macrophages (MDM). The conditions noted are these: 100 µM. How it is done: Human monocytes were obtained by leukapheresis from HIV-1/2 and hepatitis B seronegative donors, and then purified by counter-current centrifugal elutriation. Human monocytes were plated in a 12-well plate at a density of 1.0 × 10^6 cells per well using DMEM supplemented with 10% heat-inactivated pooled human serum, 1% glutamine, 10 µg/mL ciprofloxacin, and 50 µg/mL gentamicin. Cells were maintained at 37 °C in a 5% CO2 incubator. After 7 days of differentiation in the presence of 1000 U/mL recombinant human macrophage colony stimulating factor (MCSF), MDM were treated with 100 μM DTG, MDTG, NDTG, or NMDTG. Native drugs were added in DMSO (0.1% v/v). Uptake of drug was assessed by measurements of intracellular drug concentrations at 2, 4, 8, 12, 16, or 24 h after treatment. […] For both studies, adherent MDM were washed with PBS, then scraped into PBS, and counted at indicated time points using an Invitrogen Countess Automated Cell Counter (Carlsbad, CA). […] DTG and MDTG drug content was determined by UPLC-UV/Vis as described above. Release was assessed by collecting culture media after 4-h of drug treatment on days 1, 3, 5, 7, 10, 12, and 14. […] Supernatants were dried using a ThermoScientific Savant Speed Vacuum (Waltham, MA), extracted drug resuspended in 150 µL HPLC-grade methanol, and drug content was determined by UPLC-UV/Vis. […]

In data set [3] the test system is HIV-1ADA. Kind of data set: Antiretroviral efficacy in MDM challenged with HIV-1ADA after single 8-h treatment (RT activity, p24). The method, then:
as §1
For immunocytochemistry, cells were washed with PBS and fixed with 4% PFA at room temperature for 15 min, followed by an additional washing with PBS. The cells were treated with a blocking/permeabilizing solution (1% Triton X-100, 10% BSA in PBS) and incubated with mouse monoclonal antibody to HIV-1p24 (1:100) for 16 h at 4 °C. Cells were washed with PBS, and polymer-based HRP-conjugated anti-mouse secondary was added for 30 min at room temperature. Cells were then washed with PBS and developed with DAB. Nuclei were counterstained with Mayer’s hematoxylin, and cells were visualized with a ×20 objective on a Nikon Eclipse E800 microscope (Melville, NY) with Nuance EX multispectral imaging system (PerkinElmer, Hopkinton, MA)[16],[59].

Usually IC50 stands for the midpoint of a concentration-inhibition curve. High values mean weaker potency, low ones greater potency. The term inhibition denotes the change of the read-out against control, counted positive when it falls.

The molecule `C[C@@H]1CCO[C@H]2Cn3cc(C(=O)NCc4ccc(F)cc4F)c(=O)c(O)c3C(=O)N12` [DTG, dolutegravir] displayed an IC50 with HIV-1ADA [1] of 56.7 nM. The “drug retained within MDM” value in data set [2] (24 h) was less than 0.1 µg/10^6 cells. Besides, in the data set with HIV-1ADA [3] (Human immunodeficiency virus 1, single 8-h treatment, read-out: maximal inhibition of HIV-1 RT activity), the inhibition at 100 µM turned out to be 65%. Further, the “time after drug treatment for which efficacy was observed” value with HIV-1ADA [3] (single 8-h treatment, 100 µM) was “up to 4 h”.

Molecule `CCCCCCCCCCCCCC(=O)Oc1c2n(cc(C(=O)NCc3ccc(F)cc3F)c1=O)C[C@@H]1OCC[C@@H](C)N1C2=O` [MDTG] yielded an IC50 in the data set with HIV-1ADA [1] of 62.5 nM. The “maximum cellular drug level” value in data set [2] (4 h) is given as 16.7 µg/10^6 cells. Also, the inhibition at 100 µM in the data set with HIV-1ADA [3] (Human immunodeficiency virus 1, challenge at day 30 after drug loading, read-out: viral inhibition) turned out to be 83%. In the data set on HIV-1ADA [3] (days after single 8-h treatment, 100 µM), the “beginning of viral breakthrough” value turned out to be 20 days.
